Source: patent US12202829B2, “Heterocyclic compound” (FIMECS, Inc., priority 2018, dated 2025)

Tests used:
GSK3α/β and GCN2 = assay: Ubiquitin-proteasome system dependency of degradation in THP1 cells with Epoxomicin; format: cell-based, human; conditions: test compound 10 μM with or without 1 μM Epoxomicin, 8 hours, FIG. 2
Procedure: THP1 cells were seeded at a density of 1×10^6 cells/well in 24-well plate and treated with DMSO control or Example 55 (10 μM) with or without 1 μM of Epoxomicin and incubated for 8 hours. The cells were collected and lysed on ice for 30 minutes in RIPA buffer (Thermo Fisher #87787) containing a protease inhibitor cocktail (Sigma-Aldrich). The lysates were sonicated for 30 sec ON/30 sec OFF for ten cycles and centrifuged for 15 minutes at 15 krpm at 4° C. Protein concentrations were determined by the BCA assay (Thermo Fisher). Proteins were separated with Nu-PAGE (Thermo Fisher) and analyzed by western blotting (standard protocol) using antibodies of anti-GSK3α/β Cell Signaling #5676), GCN2 (Cell Signaling #3302), and β-actin (Sigma #A2066) (FIG. 2).

GCN2 [1] = target: T1, GCN2 (Homo sapiens, UniProt Q9P2K8); assay: In vitro degradation activity of GCN2 in THP1 cells, western blotting; format: cell-based; conditions: test compound 10 μM, 24 hours, relative to DMSO control set at 100
T1 construct: endogenous in cells; host or cells: THP1 (ATCC)
Procedure: (§1) In vitro degradation activities of GSK3α/β and GCN2 of the example compounds were evaluated by the following method. THP1 cells were purchased from ATCC and cultured in RPMI-1640 supplemented with 10% FBS and 1% penicillin/streptomycin. THP1 cells were seeded at a density of 1×10^6 cells/well in 24-well plate and treated with DMSO control or Example 55 (1, 3, 10 μM), and then incubated for 24 hours. The cells were collected and lysed on ice for 30 minutes in RIPA buffer (Thermo Fisher #87787) containing a protease inhibitor cocktail (Sigma-Aldrich). The lysates were sonicated for 30 sec ON/30 sec OFF for ten cycles and centrifuged for 15 minutes at 15 krpm at 4° C. Protein concentrations were determined by the BCA assay (Thermo Fisher). Proteins were separated with Nu-PAGE (Thermo Fisher) and analyzed by western blotting (standard protocol) using antibodies of anti-GSK3α/β (Cell Signaling #5676), GCN2 (Cell Signaling #3302), and R-actin (Sigma #A2066) (FIG. 1). Bands (luminescent intensities) were quantified using LAS-4000 luminescent image analyzer (Fuji). The values of GSK3α/β and GCN2 were corrected by the internal control value of β-actin and analyzed relative to DMSO control set at 100. The remaining protein rate (%) are described as A≤25%, 25%<B≤50%, 50%<C≤75%, D>75% when the concentration of the test compound is 10 μM.

GSK3α [2] = target: T2, GSK3α (Homo sapiens, UniProt P49840); assay: KINOMEscan active site-dependent competitive binding assay, GSK3α; parameters: purchased Discover X (KINOMEscan service); conditions: test compound 1 μM; DMSO = 100% Ctrl, control compound = 0% Ctrl
Procedure: (§2) Each of GSK3a/B and GCN2 binding inhibitory activity was evaluated using active site-dependent competitive assay KINOMEscan provided by Discover X (Goldstein, D. M. et al. High-throughput kinase profiling as a platform for drug discovery. Nat. Rev. Drug Discovery. 7, 391-397 (2008)). the “% Ctrl” when the concentration of the test compound is 1 μM is shown in the table below. The “% Ctrl” is calculated by the following formula. (test compound signal−positive control compound signal)/(negative control compound signal−positive control compound signal)×100 • Negative control compound=DMSO (100% Ctrl) • Positive control compound=control compound (0% Ctrl)

GSK3β [3] = target: T3, GSK3β (Homo sapiens, UniProt P49841); assay: In vitro degradation activity of GSK3β in THP1 cells, western blotting; format: cell-based; parameters: endogenous in cells; host or cells: THP1 (ATCC); conditions: test compound 10 μM, 24 hours, relative to DMSO control set at 100
Procedure: as §1

GCN2 [4] = target: T4, GCN2 (Homo sapiens, UniProt Q9P2K8, S808G); assay: KINOMEscan active site-dependent competitive binding assay, GCN2; conditions: test compound 1 μM; DMSO = 100% Ctrl, control compound = 0% Ctrl
T4 construct: purchased Discover X (KINOMEscan service)
T4 sequence (Q9P2K8 590-1001 S808G limits assumed): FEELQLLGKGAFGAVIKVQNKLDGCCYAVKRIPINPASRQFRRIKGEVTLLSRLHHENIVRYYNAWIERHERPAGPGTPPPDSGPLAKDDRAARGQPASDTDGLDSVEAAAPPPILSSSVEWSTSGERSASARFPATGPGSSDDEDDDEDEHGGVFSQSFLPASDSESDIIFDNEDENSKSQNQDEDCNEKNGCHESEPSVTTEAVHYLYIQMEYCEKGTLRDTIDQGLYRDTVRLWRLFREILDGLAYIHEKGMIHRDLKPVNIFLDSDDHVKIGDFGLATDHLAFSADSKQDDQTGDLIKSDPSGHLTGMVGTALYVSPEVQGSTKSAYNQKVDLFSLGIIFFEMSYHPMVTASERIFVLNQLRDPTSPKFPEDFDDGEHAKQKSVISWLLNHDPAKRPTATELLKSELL
Procedure: as §2

GSK3α [5] = target: T2, GSK3α; assay: In vitro degradation activity of GSK3α in THP1 cells, western blotting; format: cell-based; parameters: endogenous in cells; host or cells: THP1 (ATCC); conditions: test compound 10 μM, 24 hours, relative to DMSO control set at 100
Procedure: as §1

GSK3β [6] = target: T3, GSK3β; assay: KINOMEscan active site-dependent competitive binding assay, GSK3β; parameters: purchased Discover X (KINOMEscan service); conditions: test compound 1 μM; DMSO = 100% Ctrl, control compound = 0% Ctrl
Procedure: as §2

[7] = target: T5, human XIAP_BIR3 domain purified protein (Homo sapiens, UniProt P98170); assay: XIAP binding inhibitory activity, HTRF method with b-Smac ligand; conditions: test compound 3 μM; first symbol of the cell; read-out: XIAP binding inhibition rate when the concentration of the test compound is 3 μM
T5 construct: purchased R & D
In short: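 HTRF competition: human XIAP BIR3 and C-terminally biotinylated Smac peptide AVPIAQK, each diluted to 90 nM before addition, in HEPES pH 7.5 buffer with NaCl, BSA, Triton X-100. Eu-cryptate anti-His/streptavidin-XL665 detection after ≥4 h at room temperature; inhibition % from 665/615 ratio versus no-compound control.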

T2 sequence (P49840 whole entry): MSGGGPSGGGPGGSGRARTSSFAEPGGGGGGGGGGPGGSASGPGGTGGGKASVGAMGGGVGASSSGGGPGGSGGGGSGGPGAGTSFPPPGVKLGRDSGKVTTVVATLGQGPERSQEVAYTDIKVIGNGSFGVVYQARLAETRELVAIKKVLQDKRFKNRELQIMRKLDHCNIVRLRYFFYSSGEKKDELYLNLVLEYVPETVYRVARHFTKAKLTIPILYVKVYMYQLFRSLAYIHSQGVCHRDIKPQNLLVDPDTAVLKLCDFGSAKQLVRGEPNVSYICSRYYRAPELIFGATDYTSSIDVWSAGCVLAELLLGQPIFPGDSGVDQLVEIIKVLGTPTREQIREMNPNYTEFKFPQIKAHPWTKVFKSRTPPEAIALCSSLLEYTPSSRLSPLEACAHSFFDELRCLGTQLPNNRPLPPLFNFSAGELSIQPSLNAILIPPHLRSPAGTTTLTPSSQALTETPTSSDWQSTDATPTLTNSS
T3 sequence (P49841 whole entry): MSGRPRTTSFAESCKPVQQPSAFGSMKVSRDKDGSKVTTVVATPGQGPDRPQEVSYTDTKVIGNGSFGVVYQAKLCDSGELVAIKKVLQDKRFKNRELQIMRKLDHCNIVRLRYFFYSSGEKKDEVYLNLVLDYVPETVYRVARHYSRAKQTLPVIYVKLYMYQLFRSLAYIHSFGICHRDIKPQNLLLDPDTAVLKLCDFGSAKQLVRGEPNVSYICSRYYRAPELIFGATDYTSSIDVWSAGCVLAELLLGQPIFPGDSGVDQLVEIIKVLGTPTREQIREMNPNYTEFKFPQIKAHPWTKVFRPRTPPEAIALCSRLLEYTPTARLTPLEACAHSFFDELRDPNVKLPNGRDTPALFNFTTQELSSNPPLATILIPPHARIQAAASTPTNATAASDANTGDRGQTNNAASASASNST
T5 sequence (P98170 252-356 limits assumed): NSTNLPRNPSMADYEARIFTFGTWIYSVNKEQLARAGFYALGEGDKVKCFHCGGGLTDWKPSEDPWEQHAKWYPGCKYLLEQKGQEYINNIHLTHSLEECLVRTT
T1 sequence (Q9P2K8 whole entry): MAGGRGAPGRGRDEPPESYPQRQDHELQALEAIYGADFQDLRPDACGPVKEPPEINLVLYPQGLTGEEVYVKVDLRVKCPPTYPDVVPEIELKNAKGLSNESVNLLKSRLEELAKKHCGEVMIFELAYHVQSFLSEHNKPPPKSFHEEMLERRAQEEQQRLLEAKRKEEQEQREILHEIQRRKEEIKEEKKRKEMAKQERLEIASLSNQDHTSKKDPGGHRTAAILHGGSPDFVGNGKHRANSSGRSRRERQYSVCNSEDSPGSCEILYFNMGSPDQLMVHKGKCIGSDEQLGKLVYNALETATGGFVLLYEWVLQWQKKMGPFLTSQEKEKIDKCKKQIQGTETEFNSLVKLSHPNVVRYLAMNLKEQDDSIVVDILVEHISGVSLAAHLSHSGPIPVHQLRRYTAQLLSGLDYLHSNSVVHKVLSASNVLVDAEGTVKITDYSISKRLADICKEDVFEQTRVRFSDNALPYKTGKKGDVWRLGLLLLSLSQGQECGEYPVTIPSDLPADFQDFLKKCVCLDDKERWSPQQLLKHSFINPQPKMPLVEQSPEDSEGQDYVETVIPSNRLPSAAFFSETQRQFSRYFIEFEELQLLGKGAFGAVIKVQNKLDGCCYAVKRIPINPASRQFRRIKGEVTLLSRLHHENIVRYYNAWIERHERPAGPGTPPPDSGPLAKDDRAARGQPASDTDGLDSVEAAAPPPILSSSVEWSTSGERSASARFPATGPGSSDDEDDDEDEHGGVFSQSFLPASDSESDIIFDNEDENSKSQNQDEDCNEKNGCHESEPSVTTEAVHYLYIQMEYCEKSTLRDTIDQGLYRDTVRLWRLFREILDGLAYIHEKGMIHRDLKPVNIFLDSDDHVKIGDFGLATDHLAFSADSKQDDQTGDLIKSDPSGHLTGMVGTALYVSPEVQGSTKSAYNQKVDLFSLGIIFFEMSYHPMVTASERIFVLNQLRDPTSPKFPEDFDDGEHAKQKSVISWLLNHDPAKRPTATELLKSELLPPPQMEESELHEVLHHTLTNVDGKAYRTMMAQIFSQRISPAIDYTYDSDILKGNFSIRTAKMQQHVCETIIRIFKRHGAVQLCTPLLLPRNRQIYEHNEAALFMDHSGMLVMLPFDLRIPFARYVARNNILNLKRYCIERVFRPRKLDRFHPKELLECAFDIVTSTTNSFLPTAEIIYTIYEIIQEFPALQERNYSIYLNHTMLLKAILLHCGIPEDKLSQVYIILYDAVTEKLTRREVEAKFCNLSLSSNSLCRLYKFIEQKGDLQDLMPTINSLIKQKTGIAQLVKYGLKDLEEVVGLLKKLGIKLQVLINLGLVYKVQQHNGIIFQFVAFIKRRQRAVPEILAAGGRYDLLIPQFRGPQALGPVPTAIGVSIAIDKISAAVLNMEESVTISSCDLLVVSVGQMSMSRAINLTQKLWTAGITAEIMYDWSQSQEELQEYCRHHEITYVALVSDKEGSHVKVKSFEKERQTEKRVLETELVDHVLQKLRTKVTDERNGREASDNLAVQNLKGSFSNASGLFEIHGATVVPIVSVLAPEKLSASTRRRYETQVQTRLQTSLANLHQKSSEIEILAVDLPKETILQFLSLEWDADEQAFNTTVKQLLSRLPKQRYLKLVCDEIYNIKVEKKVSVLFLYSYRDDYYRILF

remaining protein rate (%) GCN2 (GCN2 [1]): A (A≤25%) | remaining binding at 1 µM (GSK3α [2]): 39% | remaining protein rate (%) GSK3β (GSK3β [3]): B (25%<B≤50%) | remaining binding at 1 µM (GCN2 [4]): 0.35% | remaining protein rate (%) GSK3α (GSK3α [5]): B (25%<B≤50%) | remaining binding at 1 µM (GSK3β [6]): 11% | inhibition at 3 µM [7]: > 75%
SMILES: CN[C@@H](C)C(=O)N[C@H](C(=O)N1CCN(C(=O)c2c(C(=O)NCCOCCOCC(=O)N3CCN(c4ccc(Nc5ncc6nnn(-c7ccc(OC)c(OC)c7)c6n5)cc4)CC3)c3ccc(OC)cc3n2C)CC1)C1CCCCC1 [Example 55, 2-(4-((S)-2-Cyclohexyl-2-((S)-2-(methylamino)propanamido)acetyl)piperazine-1-carbonyl)-N-(2-(2-(2-(4-(4-((3-(3,4-dimethoxyphenyl)-3H-[1,2,3]triazolo[4,5-d]pyrimidin-5-yl)amino)phenyl)piperazin-1-yl)-2-oxoethoxy)ethoxy)ethyl)-6-methoxy-1-methyl-1H-indole-3-carboxamide]
degradation activity of GSK3α/β and GCN2 with proteasome inhibitor Epoxomicin (GSK3α/β and GCN2): cancelled by the proteasome inhibitor Epoxomicin treatment
